How the values were obtained:
[1] = In vitro stability test in human serum; conditions: 100 μM stock diluted 10-fold in 100% human serum, 37 °C, 0-24 h; analytical HPLC; triplicate
Description: Stock solutions of peptides (100 μM) were diluted by a factor of 10 with pre-warmed 100% human serum (Sigma-Aldrich, St. Louis, MO, USA) and incubated at 37 °C for 0, 3, 6, 9, and 24 h. Controls with peptides in PBS were included. The action was stopped by denaturing the serum proteins with urea at a final concentration of 3 M at 4 °C for 10 min, followed by precipitation of serum proteins with trichloroacetic acid at a final concentration of 7% (v/v) (4 °C, 10 min) and centrifugation (17,000 × g, 10 min). The supernatant of each sample was recovered and run on an analytical column using a linear gradient of 5-65% solvent B for 30 min at a flow rate of 1 ml/min, where solvent A was water containing 0.1% TFA and solvent B was acetonitrile containing 0.1% TFA. The percentage of peptide remaining in serum-treated samples was determined by comparing the height of the peptide peak obtained at each time point with that of the peptide peak obtained at the 0 time point. […]
(§1) bated at 37 °C for 0, 3, 6, 9, and 24 h. The portion of serum-treated peptide remaining was determined by calcu-lating the height of the respective elution peak in analytical-HPLC and comparing it with control without incuba- […]
Plasma peptide concentrations were quantified by ELISA, and pharmacokinetic profiles were analyzed using Phoenix WinNonlin 8.1 (Pharsight Corporation, Mountain View, CA, USA). […]

[2] = In vivo stability test (plasma pharmacokinetics after single intravenous injection); conditions: mouse
Description: After 15 min of centrifugation at 5,000 rpm and 4 °C, the plasma was obtained and stored at -80 °C. Plasma peptide concentrations were quantified by ELISA, and pharmacokinetic profiles were analyzed using Phoenix WinNonlin 8.1 (Pharsight Corporation, Mountain View, CA, USA). The area under the plasma concentration-time curve (AUC), distribution half-time (T1/2), maximum plasma concentration (Cmax) and time required to reach maximum plasma concentration (Tmax) values were directly determined from the experimental data. […]
as §1
Plasma peptide concentrations were quantified by ELISA, and pharmacokinetic profiles were analyzed using Phoenix WinNonlin 8.1 (Pharsight Corporation, Mountain View, CA, USA). The data are presented as the means ± standard deviation.

MDA-MB-231 cells = test: Time-dependent binding/internalization of AGM-330-FITC, confocal microscopy; format: cell-based, human; conditions: 5 μmol/l, 37 °C, 1, 3, 6 and 12 h, confocal fluorescence
Description: We evaluated the specificity of AGM-330 to NCL with cell binding assays against different cell lines using fluorescence microscopy. The experiment was performed using multiple cancer cell lines, MCF-7, MDA-MB-231, HT-29, and HCT-116, and normal cell lines, MCF-10A, and CCD-18Co. The binding specificity was determined by confocal imaging after 1 h of incubation of the cells with 5 μmol/l AGM-330-FITC. The cells were incubated with DAPI to counterstain the nuclei (blue fluorescence). […] To evaluate the ability of AGM-330 to undergo NCL-mediated endocytosis, MDA-MB-231 cells were incubated with AGM-330-FITC at 37 °C for different times (1, 3, 6 and 12 h). […] As mentioned in a previous study, N6L is essentially built on a lysine-rich helicoid template formed by a repeat of 6 tripeptide units. […] Therefore, the difference in the molecular structure between AGM-330 and N6L may be caused by different endocytosis mechanisms. […] However, except for membrane NCL, we could not confirm the protein associated with internalization among the proteins bound to AGM-330 (Figure 2D). Taken together, N6L, which binds to both membrane NCL and nucleophosmin, induce apoptosis after internalization into nucleolus of cancer cells.
Figure S6. Time-dependent in vitro binding assay of AGM-330-FITC toward cancer cells. MDA-MB-231 cells were incubated with 5 μmol/l AGM-330-FITC for 1, 3, 6 and 12 h at 37 °C. […]

[3] = test system: cancer cells (MCF-7, MDA-MB-231, HT-29, HCT-116); test: Flow cytometry binding of FITC-labeled peptide; format: cell-based, human; conditions: 1 × 10^5 cells, 2 h at 37 °C, serum-free medium
Description: (§2) Fluorescence-activated cell-sorting (FACS) analysis was used to check the binding of the FITC labeled peptides (FITC-peptide). The stock solution for the FITC-peptides (100 μM) was prepared by dissolving the peptide in PBS. MCF-10A, MCF-7, MDA-MB-231, CCD-18Co, HT-29, and HCT-116 cells were seeded in 6-well plates (10^5 cells/well) containing 3 ml of medium, and the plates were then incubated at 37 °C overnight. […] Thereafter, the medium was removed, and the cells were washed with cold PBS to remove any remaining peptide. Adequate trypsin/EDTA was added to each well, which was followed by a 3 ~ 5 min incubation at 37 °C. Trypsin/EDTA was immediately neutralized by adding medium, and the cell suspension was then transferred into centrifuge tubes. The cells were separated and washed twice with PBS. […] The prepared cells were analyzed on a FACScanto II (BD Biosciences, San Jose, CA, USA) flow cytometer, and the FACS data were analyzed using FlowJo (TreeStar, Ashland, OR, USA).
(§3) Next, to examine whether the MAP ligand can selectively bind to cancer cells, cancer cells treated with FITC-labeled AGM-330 (AGM-330-FITC) were compared with untreated cells. […] Then, the inherent fluorescence of peptide-treated cells were compared and measured based on changes in the mean fluorescence intensity (MFI) values compared to those of untreated cells (Figure 1D and E).

[4] = test system: normal cells (MCF-10A, CCD-18Co); test: Flow cytometry binding of FITC-labeled peptide; format: cell-based, human; conditions: 1 × 10^5 cells, 2 h at 37 °C, serum-free medium
Description: as §2, §3

Row | Compound | degradation after incubation with serum [1] | Cmax [2] [ng/mL] | Tmax [2] [min] | cellular uptake / internalization (MDA-MB-231 cells) | binding to cancer cells (MFI relative to untreated cells) [3] | binding to normal cells (MFI) [4]
1 | CSCC[C@H](NC(=O)[C@H](C)NC(=O)CNC(=O)[C@H](Cc1c[nH]cn1)NC(=O)[C@@H](N)CCCNC(=N)N)C(=O)N[C@H](C(=O)N[C@@H](Cc1ccc(O)cc1)C(=O)N[C@@H](CC(C)C)C(=O)N[C@@H](CCCCN)C(=O)O)C(C)C [AGM-330m] | rapidly degraded | 1270 ± 120 | 10 | – | – | –
2 | AGM-330-FITC (RHGAMVYLK; PEG12 after the C-terminal Lys of each RHGAMVYLK arm, joined to a trilysine core; FITC (by FITC-5-maleimide)) | – | – | – | not taken up by the cytoplasm or nucleolus | significant cancer cell binding | significant decrease in binding to normal cells
